Experiments:
human RORγ = target: T1, human RORγ (Homo sapiens, UniProt P51449); test: In-vitro reporter gene assay for inhibitory activity against RORγ transcription, Test Method A (GAL4-hRORγ LBD / pG5-Luc in CHO cells); assay type: cell-based; settings: luciferase reporter, 2 days
T1 construct: from Ser253 to Lys518 for human RORγ; expressed in transfected cells; host or cells: CHO cells (transient co-transfection with pG5-Luc)
T1 sequence (P51449 253-518): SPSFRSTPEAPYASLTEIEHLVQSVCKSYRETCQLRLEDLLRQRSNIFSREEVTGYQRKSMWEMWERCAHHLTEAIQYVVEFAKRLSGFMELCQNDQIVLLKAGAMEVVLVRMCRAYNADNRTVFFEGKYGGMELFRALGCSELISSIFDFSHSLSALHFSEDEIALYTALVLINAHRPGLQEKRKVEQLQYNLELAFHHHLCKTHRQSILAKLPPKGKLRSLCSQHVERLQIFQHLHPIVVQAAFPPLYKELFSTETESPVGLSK
Procedure: (§1) In-Vitro Assay for Inhibitory Activity Against RORγ Transcription
(§2) Inhibitory activity against RORγ transcription was assessed for test compounds by either of the following Test Method A or B of reporter gene assay.
(§3) cDNAs encoding human and mouse RORγ ligand binding domains (LBD) were obtained based on the sequences of human RORγ (Genbank registered number NM_005060.3) and mouse RORγ (Genbank registered number NM_011281.2) (LBD sequences: from Ser253 to Lys518 for human RORγ; from Ile251 to Lys516 for mouse RORγ).
(§4) LBD cDNAs of human and mouse RORγ were inserted into pFA-CMV vector (Stratagene), which expresses GAL4-DNA binding domain fusion protein. The resulting plasmids are hereinafter referred to as GAL4-hRORγ plasmid and GAL4-mRORγ plasmid, respectively.
(§5) GAL4-hRORγ plasmid or GAL4-mRORγ plasmid was transiently co-transfected into Chinese hamster ovary cells (CHO cells) with pG5-Luc (Promega), reporter plasmid expressing firefly luciferase in a GAL4-dependent manner.
(§6) TransIT (Registered trademark) CHO Transfection Kit (Mirus) was used to co-transfect CHO cells with the plasmids. One day prior to the assay, CHO cells were suspended in HAM F-12 Nutrient medium containing 10% (v/v) fetal bovine serum and seeded at 6×10^6 cells per 175 cm^2 cell culture flask each. 54 μL of TransIT (Registered trademark) CHO reagent was added into a 15 mL tube containing 1.16 mL of HAM F-12 Nutrient medium without fetal bovine serum, and then mixed and incubated at room temperature for 10 minutes. 36 μL of a plasmid solution containing 400 ng of GAL4-hRORγ plasmid, 9000 ng of pG5-Luc plasmid, and 8600 ng of pcDNA3 plasmid were added into the tube and mixed gently. In the case of mouse assay, a plasmid solution containing 250 ng of GAL4-mRORγ plasmid, 9000 ng of pG5-Luc plasmid, and 8750 ng of pcDNA3 plasmid was added, instead. The mixture was incubated at room temperature for 10 minutes. 9 μL each of CHO Mojo Reagent were then added into each tube and mixed gently. The mixture was incubated at room temperature for 10 minutes. The resulting transfection reagent was applied to the cell culture. After incubation at 37° C., 5% CO2 for 4 hours, the plasmid-transfected CHO cells were harvested by trypsin treatment. The collected cells were resuspended in culture medium and plated into a 384-well-white plate at 8,000 cells/50 μL/well. The plate was let stand at room temperature for 1 hour and then further incubated at 37° C., 5% CO2 for 3 hours. A test compound was dissolved in DMSO to obtain a concentration of 10 mM. Each solution was serially diluted with DMSO and further diluted with culture medium just before use. The test compound solutions were added. to the cells in the plate at 8 different concentrations. The final concentration of DMSO was 0.2% (v/v). After the addition of test compound, the cells were incubated at […], 5% CO2 for 2 days.
(§7) RORγ transcriptional activity was detected as the intracellular luciferase activity using SteadyLite HTS Reporter Gene Assay System (Perkin Elmer). SteadyLite Reagent was diluted five-fold with Extension buffer (10 mM Tricine, 0.2% (w/v) bovine serum albumin, 0.02% (v/v) Tween-20) to obtain a luciferase substrate solution. After the measurement of the cell viability with Resazurin, the medium was removed in the plate and the luciferase substrate solution was added thereto. After the incubation at room temperature for 10 minutes, luminescence of each well was measured with a microplate reader. The luciferase activity derived from the luminescence count in a vehicle-control well treated with 0.2% DMSO alone was defined as 100%, and the luciferase activity after treatment with the test compound was calculated as a percentage, %-of-control, based on the value of the vehicle-control. An EC50 value of the test compound was calculated by curve fitting with GraphPad Prism. The luminescence counts at the concentration of test compound where cytotoxicity was observed were excluded from data analysis. […]

mouse RORγ = target: T2, mouse RORγ (Mus musculus, UniProt P51450); test: In-vitro reporter gene assay for inhibitory activity against RORγ transcription, Test Method A (GAL4-mRORγ LBD / pG5-Luc in CHO cells); assay type: cell-based; settings: luciferase reporter, 2 days
T2 construct: from Ile251 to Lys516 for mouse RORγ; expressed in transfected cells; host or cells: CHO cells (transient co-transfection with pG5-Luc)
T2 sequence (P51450 251-516): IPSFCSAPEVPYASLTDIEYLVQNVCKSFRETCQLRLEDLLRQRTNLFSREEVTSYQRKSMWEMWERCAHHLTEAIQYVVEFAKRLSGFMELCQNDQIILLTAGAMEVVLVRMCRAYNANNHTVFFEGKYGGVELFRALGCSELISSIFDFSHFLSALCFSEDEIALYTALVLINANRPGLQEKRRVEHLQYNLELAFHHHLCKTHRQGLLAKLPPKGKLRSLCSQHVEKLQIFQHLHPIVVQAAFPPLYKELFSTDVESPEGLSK
Procedure: as §1, §2, §3, §4, §5, §6, §7

| SMILES | EC50 (human RORγ) [µM] | EC50 (mouse RORγ) [µM] |
| --- | --- | --- |
| CC(C)(C)CCc1ccc(C23COC(C)(C)C2=CN(CCC(=O)O)C(=O)N3)cc1Cl (single isomer, unassigned) [Example 6] | 0.554 | 0.714 |
| CC(C)(C)CCc1ccc(C23COC(C)(C)C2=CN(c2ccc(C(=O)O)cc2)C(=O)N3)cc1Cl (single isomer, unassigned) [Example 8] | 0.427 | 0.381 |
| CC(C)(C)CCc1ccc([C@]23CCC(C)(C)C2=CN(c2ccc(C(=O)O)cc2)C(=O)N3)cc1Cl (single isomer, unassigned) [Example 9] | 0.819 | 1.47 |
| C[C@@H]1CCC2(c3ccc(CCC(C)(C)C)c(Cl)c3)NC(=O)N(CCC(=O)O)C=C12 (single isomer, unassigned) [Example 12] | 2.58 | 3.43 |
| CC(C)(C)CCc1ccc([C@]23COC(COCc4ccccc4)C2=CN(CCC(=O)O)C(=O)N3)cc1Cl (single isomer, unassigned) [Example 15] | > 8 | > 8 |
| CC(C)(C)CCc1ccc([C@@]23COC(COCc4ccccc4)C2=CN(CCC(=O)O)C(=O)N3)cc1Cl (single isomer, unassigned) [Example 16] | 0.755 | 0.774 |
| CC(C)(C)CCc1ccc([C@]23COC(CO)C2=CN(CCC(=O)O)C(=O)N3)cc1Cl (single isomer, unassigned) [Example 17] | > 20 | > 20 |
| CC(C)(C)CCc1ccc([C@@]23COC(CO)C2=CN(CCC(=O)O)C(=O)N3)cc1Cl (single isomer, unassigned) [Example 18] | 0.773 | 0.452 |
| COCC1OC[C@]2(c3ccc(CCC(C)(C)C)c(Cl)c3)NC(=O)N(CCC(=O)O)C=C12 (single isomer, unassigned) [Example 19] | 17.1 | 15.6 |
| CC(C)(C)CCc1ccc(C23COC(COC(C)(C)C)C2=CN(CCC(=O)O)C(=O)N3)cc1Cl (single isomer, unassigned) [Example 21] | 2.26 | 1.27 |
| CC(C)(C)CCc1ccc(C23COC(COC(C)(C)C)C2=CN(CCC(=O)O)C(=O)N3)cc1Cl (single isomer, unassigned) [Example 22] | 16.2 | > 8 |
| CN(C)CCC1CCC2(c3ccc(CCC(C)(C)C)c(Cl)c3)NC(=O)N(CCC(=O)O)C=C12 (single isomer, unassigned) [Example 28] | > 20 | > 20 |
| CC(C)(C)CCc1ccc(C23CC(C)(C)CC2=CN(CCC(=O)O)C(=O)N3)cc1Cl (single isomer, unassigned) [Example 33] | 2.96 | > 3.2 |
| CC(C)(C)CCc1ccc([C@]23CCCC(C)(C)C2=CN(CCC(=O)O)C(=O)N3)cc1Cl (single isomer, unassigned) [Example 37] | 3.87 | 5.51 |
| CC(C)(C)CCc1ccc([C@]23CCCCC2=CN(CCC(=O)O)C(=O)N3)cc1Cl (single isomer, unassigned) [Example 40] | 4.64 | 5.33 |
| COC1CC[C@]2(c3ccc(CCC(C)(C)C)c(Cl)c3)NC(=O)N(CCC(=O)O)C=C2C1 (single isomer, unassigned) [Example 67] | 4.72 | 8.34 |

Compounds with a lower EC50 (human RORγ), results first:

| EC50 (human RORγ) [µM] | EC50 (mouse RORγ) [µM] | SMILES |
| --- | --- | --- |
| 0.007 | 0.009 | CC(C)(C)CCc1ccc(C23COC(C)(C)C2=CN(CCC(=O)O)C(=O)N3)cc1Cl (single isomer, unassigned) [Example 5] |
| 0.009 | 0.011 | CC(C)(C)CCc1ccc(C23COC(C)(C)C2=CN(c2ccc(C(=O)O)cc2)C(=O)N3)cc1Cl (single isomer, unassigned) [Example 7] |
| 0.016 | 0.03 | CC(C)(C)CCc1ccc(C23CCC(C)(C)C2=CN(c2ccc(C(=O)O)cc2)C(=O)N3)cc1Cl (single isomer, unassigned) [Example 10, 4-{7a-[3-Chloro-4-(3,3-dimethyl-butyl)phenyl]-5,5-dimethyl-2-oxo-1,2,5,6,7,7a-hexahydro-cyclopentapyrimidin-3-yl}benzoic acid] |
| 0.021 | 0.022 | C[C@@H]1CCC2(c3ccc(CCC(C)(C)C)c(Cl)c3)NC(=O)N(CCC(=O)O)C=C12 (single isomer, unassigned) [Example 11] |
| 0.025 | 0.025 | COCC1OC[C@@]2(c3ccc(CCC(C)(C)C)c(Cl)c3)NC(=O)N(CCC(=O)O)C=C12 (single isomer, unassigned) [Example 20] |
| 0.092 | 0.105 | CC(C)(C)CCc1ccc(C23CCC(CCO)C2=CN(CCC(=O)O)C(=O)N3)cc1Cl (single isomer, unassigned) [Example 25] |
| 0.351 | 0.243 | CC(C)(C)CCc1ccc(C23CCC(CCOCc4ccccc4)C2=CN(CCC(=O)O)C(=O)N3)cc1Cl (single isomer, unassigned) [Example 26] |
| 0.027 | 0.039 | COCCC1CCC2(c3ccc(CCC(C)(C)C)c(Cl)c3)NC(=O)N(CCC(=O)O)C=C12 (single isomer, unassigned) [Example 27, 3-{7a-[3-Chloro-4-(3,3-dimethyl-butyl)phenyl]-5-(2-methoxy-ethyl)-2-oxo-1,2,5,6,7,7a-hexahydro-cyclopentapyrimidin-3-yl}propionate] |
| 0.173 | 0.103 | CC(C)(C)CCc1ccc(C23CCC(CO)C2=CN(CCC(=O)O)C(=O)N3)cc1Cl (single isomer, unassigned) [Example 29] |
| 0.021 | 0.018 | CC(C)(C)CCc1ccc(C23CC(C)(C)CC2=CN(CCC(=O)O)C(=O)N3)cc1Cl (single isomer, unassigned) [Example 32] |
| 0.011 | 0.021 | CC(C)(C)CCc1ccc([C@@]23CCCC(C)(C)C2=CN(CCC(=O)O)C(=O)N3)cc1Cl (single isomer, unassigned) [Example 38] |
| 0.017 | 0.013 | CC(C)(C)CCc1ccc([C@@]23CCCCC2=CN(CCC(=O)O)C(=O)N3)cc1Cl (single isomer, unassigned) [Example 41] |
| 0.024 | 0.03 | CC1CCC2(c3ccc(CCC(C)(C)C)c(Cl)c3)NC(=O)N(CCC(=O)O)C=C2C1 (single isomer, unassigned) [Example 66] |
| 0.015 | 0.016 | COC1CC[C@@]2(c3ccc(CCC(C)(C)C)c(Cl)c3)NC(=O)N(CCC(=O)O)C=C2C1 (single isomer, unassigned) [Example 68] |
